Broadly, the Ki is the dissociation constant of the complex between target and ligand, obtained from inhibition or displacement. Read a high Ki as lower affinity.

The values that follow come from patent US8809331B2 (Genentech, Inc., priority 2011, dated 2014).

The assay has as its target T1, LRRK2 (Homo sapiens, UniProt Q5S007, G2019S).
T1 construct: purchased Invitrogen PV4882
Kind of assay: In Vitro LRRK2 LabChip Assay (LRRK2 Ki). The assay is classed as biochemical. The settings on record: Table 5 compounds (formula I). Here is the method: In Vitro LRRK2 LabChip Assay
This assay was used to determine a compound's potency in inhibiting activity of LRRK2 by determining, Kiapp, IC50, or percent inhibition values. In a polypropylene plate, LRRK2, fluorescently-labeled peptide substrate, ATP and test compound were incubated together. Using a LabChip 3000 (Caliper Life Sciences), after the reaction the substrate was separated by capillary electrophoresis into two populations: phosphorylated and unphosphorylated. The relative amounts of each were quantitated by fluorescence intensity. LRRK2 Ki was determined according to the equation: Y=V0*(1−((x+Ki*(1+S/Km)+Et)/(2*Et)−(((x+Ki*(1+S/Km)+Et)^2−(4*Et*x))^0.5)/(2*Et))). Ki values in Table 4 and elsewhere herein are shown in μM.
Assay conditions and materials used were as follows:
LRRK2 Wild type in 5 mM MgCl2: 15 nM (Invitrogen lot #500607F)
Kinase reaction time: 2 hours
Wild type in 5 mM MgCl2: 80 μM
Solid Support: Black 50 μL volume polypropylene 384 well plate (MatriCal cat # MP101-1-PP)
Kinase: LRRK2 G2019S (Invitrogen cat #PV4882). • LRRK2 Wild type (Invitrogen cat #PV4874).
Substrate: 5FAM-[…]-CONH2
Non-binding plate: 384 well clear V-bottom polypropylene plates (Greiner cat #781280).
ATP: 10 mM ATP (Cell Signaling cat #9804).
Coating Reagent #3: Coating Reagent #3 (Caliper).
Complete Reaction Buffer: H2O/25 mM Tris, pH 8.0/5 mM MgCl2/2 mM DTT/0.01% Triton X-100.
Stop Solution: H2O/100 mM HEPES, pH 7.2/0.015% Brij-35/0.2% Coating Reagent #3/20 mM EDTA.
Separation Buffer: H2O/100 mM HEPES, pH 7.2/0.015% Brij-35/0.1% Coating Reagent #3/1:200 Coating Reagent #8/10 mM EDTA/5% DMSO.
Compound Plate Preparation:
For serial dilutions, 34.6 μl DMSO was added to columns 3-24. For the assay controls, 37.5 μl DMSO was added to columns 1 and 2 of rows A and P. a, d and 50 μl 25 μM G-028831 (Staurosporine) was added to columns 1 and 2, row B. For the samples: to start at 100 μM, 37.5 μl DMSO was to columns 1 and 2, then 12.5 μl 10 mM compound; to start at 10 μM, 78 μl DMSO was added to columns 1 & 2, then 2 μl 10 mM compound; and to start at 1 μM, 25 μM compound (2 μl 10 mM cmpd+798 μl DMSO) was added to empty columns 1 and 2. A Precision instrument was used to perform 1:3.16 serial dilutions (“PLK_BM_serial_halflog”).
ATP was diluted to 282.1 μM in Complete Kinase Buffer (final concentration was 130 μM).
Total and Blank Preparation:
In Complete Reaction Buffer, substrate was diluted to 4 μM. Equal volumes of Complete Reaction Buffer and 4 μM substrate were combined to obtain the blank. Equal volumes of Complete Reaction Buffer and 4 μM substrate were combined and to the combined solution was added 2× final LRRK2 concentration.
To a 50 μl polypropylene plate, 5 μl/well buffer/substrate was added by hand to Blank wells. A Biomek FX was used to start the kinase reaction (“PLK SAR 23 ATP”). The following were added to the appropriate wells:
5 μl/well compound/ATP in Assay Plate;
5 μl/well kinase/substrate in Assay Plate;
The plate was incubated for 2 hours in the dark. Biomek FX was used to stop the kinase reaction (“PLK Stop”), and 10 μl/well Stop solution was added to the Assay Plate. Results were read on the LabChip 3000.
The LabChip 3000 was run using the job “LRRK2 IC50” with the following job settings:
Downstream voltage: −500 V
Upstream voltage: −2350 V
Post sample buffer sip time: 75 seconds
Post dye buffer sip time: 75 seconds
Final delay time: 200 seconds

T1 sequence (Q5S007 whole entry G2019S): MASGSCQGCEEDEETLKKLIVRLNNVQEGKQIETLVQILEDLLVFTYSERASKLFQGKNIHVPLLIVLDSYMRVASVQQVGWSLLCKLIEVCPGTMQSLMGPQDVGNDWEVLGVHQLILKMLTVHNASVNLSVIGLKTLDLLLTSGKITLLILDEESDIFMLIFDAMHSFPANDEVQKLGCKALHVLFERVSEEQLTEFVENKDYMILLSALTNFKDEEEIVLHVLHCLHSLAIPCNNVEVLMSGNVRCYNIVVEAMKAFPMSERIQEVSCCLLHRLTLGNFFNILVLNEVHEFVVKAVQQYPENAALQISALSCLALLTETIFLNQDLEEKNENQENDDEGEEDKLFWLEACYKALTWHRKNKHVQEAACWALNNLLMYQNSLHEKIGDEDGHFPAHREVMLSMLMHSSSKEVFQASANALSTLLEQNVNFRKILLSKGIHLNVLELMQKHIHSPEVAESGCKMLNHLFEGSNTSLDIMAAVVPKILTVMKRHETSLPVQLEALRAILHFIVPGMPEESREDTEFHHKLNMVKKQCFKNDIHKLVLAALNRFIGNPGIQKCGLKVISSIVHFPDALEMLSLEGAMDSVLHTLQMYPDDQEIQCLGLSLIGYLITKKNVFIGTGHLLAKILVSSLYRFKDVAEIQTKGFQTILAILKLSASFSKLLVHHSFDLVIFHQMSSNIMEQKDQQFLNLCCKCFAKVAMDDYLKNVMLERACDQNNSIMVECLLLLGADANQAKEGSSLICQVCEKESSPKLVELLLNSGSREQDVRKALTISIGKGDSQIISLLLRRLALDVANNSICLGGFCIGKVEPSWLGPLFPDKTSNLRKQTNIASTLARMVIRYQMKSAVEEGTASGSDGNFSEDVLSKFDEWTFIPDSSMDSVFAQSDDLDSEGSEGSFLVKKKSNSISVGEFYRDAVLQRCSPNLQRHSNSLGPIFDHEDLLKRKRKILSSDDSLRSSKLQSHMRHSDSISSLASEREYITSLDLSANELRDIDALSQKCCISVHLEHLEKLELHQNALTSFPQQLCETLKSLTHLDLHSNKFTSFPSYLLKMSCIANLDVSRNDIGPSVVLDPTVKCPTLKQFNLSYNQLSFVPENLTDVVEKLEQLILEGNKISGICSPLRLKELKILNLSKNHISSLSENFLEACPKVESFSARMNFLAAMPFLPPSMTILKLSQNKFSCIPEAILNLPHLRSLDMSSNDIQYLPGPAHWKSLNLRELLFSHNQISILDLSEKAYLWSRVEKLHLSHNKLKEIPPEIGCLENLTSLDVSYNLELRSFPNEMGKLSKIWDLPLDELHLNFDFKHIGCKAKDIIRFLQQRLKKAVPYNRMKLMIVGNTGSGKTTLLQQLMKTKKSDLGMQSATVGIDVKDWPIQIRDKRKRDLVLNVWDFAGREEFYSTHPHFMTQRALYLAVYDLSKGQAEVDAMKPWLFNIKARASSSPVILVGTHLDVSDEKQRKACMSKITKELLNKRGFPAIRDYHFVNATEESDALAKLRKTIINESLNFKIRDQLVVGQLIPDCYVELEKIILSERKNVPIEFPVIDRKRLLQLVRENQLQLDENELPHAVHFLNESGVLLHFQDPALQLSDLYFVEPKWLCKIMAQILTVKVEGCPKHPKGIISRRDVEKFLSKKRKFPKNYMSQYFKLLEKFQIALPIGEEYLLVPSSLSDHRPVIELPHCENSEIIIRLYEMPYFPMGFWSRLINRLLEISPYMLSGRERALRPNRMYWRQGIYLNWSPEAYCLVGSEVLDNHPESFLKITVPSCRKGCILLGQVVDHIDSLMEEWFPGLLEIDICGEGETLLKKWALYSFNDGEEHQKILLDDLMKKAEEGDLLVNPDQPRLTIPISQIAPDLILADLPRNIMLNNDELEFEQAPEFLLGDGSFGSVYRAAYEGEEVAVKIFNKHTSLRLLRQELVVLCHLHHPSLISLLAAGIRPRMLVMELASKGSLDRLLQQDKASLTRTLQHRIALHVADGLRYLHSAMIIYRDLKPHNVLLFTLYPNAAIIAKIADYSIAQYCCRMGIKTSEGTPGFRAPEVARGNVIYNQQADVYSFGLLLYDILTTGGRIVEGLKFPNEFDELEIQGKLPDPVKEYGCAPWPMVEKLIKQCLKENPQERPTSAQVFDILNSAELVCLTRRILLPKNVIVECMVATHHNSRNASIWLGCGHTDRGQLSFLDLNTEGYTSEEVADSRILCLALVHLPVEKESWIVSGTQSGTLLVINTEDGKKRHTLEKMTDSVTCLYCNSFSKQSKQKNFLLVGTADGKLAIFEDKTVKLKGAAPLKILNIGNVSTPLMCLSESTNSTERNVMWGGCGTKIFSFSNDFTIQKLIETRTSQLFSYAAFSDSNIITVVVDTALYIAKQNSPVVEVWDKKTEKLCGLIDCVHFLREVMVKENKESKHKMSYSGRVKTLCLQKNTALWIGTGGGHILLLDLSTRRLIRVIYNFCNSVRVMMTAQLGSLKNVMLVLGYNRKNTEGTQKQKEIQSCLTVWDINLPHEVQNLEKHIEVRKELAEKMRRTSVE

`CNc1nc(Nc2cc(OC)c(C(=O)N3CCN(C4COC4)CC3)cc2Cl)ncc1C(F)(F)F` [Compound 23, [5-Chloro-2-methoxy-4-(4-methylamino-5-trifluoromethyl-pyrimidin-2-ylamino)-phenyl]-(4-oxetan-3-yl-piperazin-1-yl)-methanone] had a Ki of 4.09 nM. For `CNc1nc(Nc2cc(OC)c(C(=O)N3CCC(F)(F)C3)cc2Cl)ncc1C(F)(F)F` [Compound 24, [5-Chloro-2-methoxy-4-(4-methylamino-5-trifluoromethyl-pyrimidin-2-ylamino)-phenyl]-(3,3-difluoro-pyrrolidin-1-yl)-methanone] the value was 6.67 nM; for `COc1cc(C(=O)N2CCOCC2)c(F)cc1Nc1ncc(C(F)(F)F)c(NC2CC2)n1` [Compound 25, [4-(4-Cyclopropylamino-5-trifluoromethyl-pyrimidin-2-ylamino)-2-fluoro-5-methoxy-phenyl]-morpholin-4-yl-methanone], 0.507 nM; for `COc1cc(C(=O)N2CCOCC2)c(F)cc1Nc1ncc(C(F)(F)F)c(N2CCC2)n1` [Compound 26, [4-(4-Azetidin-1-yl-5-trifluoromethyl-pyrimidin-2-ylamino)-2-fluoro-5-methoxy-phenyl]-morpholin-4-yl-methanone], 31.5 nM.

On to `CNc1nc(Nc2cc(OC)c(C(=O)NCC(C)(C)O)cc2F)ncc1C(F)(F)F` [Compound 27, 5-Fluoro-N-(2-hydroxy-2-methyl-propyl)-2-methoxy-4-(4-methylamino-5-trifluoromethyl-pyrimidin-2-ylamino)-benzamide], for which the Ki amounted to 11.7 nM. As for `CCNc1nc(Nc2cc(OC)c(C(=O)NCC(C)(C)O)cc2F)ncc1C(F)(F)F` [Compound 28, 4-(4-Ethylamino-5-trifluoromethyl-pyrimidin-2-ylamino)-5-fluoro-N-(2-hydroxy-2-methyl-propyl)-2-methoxy-benzamide], affinity was put at a Ki of 6.42 nM. For `CNc1nc(Nc2cc(OC)c(C(=O)N(C)CC(C)(C)O)cc2F)ncc1C(F)(F)F` [Compound 29, 5-Fluoro-N-(2-hydroxy-2-methyl-propyl)-2-methoxy-N-methyl-4-(4-methylamino-5-trifluoromethyl-pyrimidin-2-ylamino)-benzamide] the value was 19.5 nM; for `CCNc1nc(Nc2cc(OC)c(C(=O)N(C)CC(C)(C)O)cc2F)ncc1C(F)(F)F` [Compound 30, 4-(4-Ethylamino-5-trifluoromethyl-pyrimidin-2-ylamino)-5-fluoro-N-(2-hydroxy-2-methyl-propyl)-2-methoxy-N-methyl-benzamide], 7.07 nM; for `CCNc1nc(Nc2cc(F)c(C(=O)N3CCOCC3)cc2F)ncc1C(F)(F)F` [Compound 31, [4-(4-Ethylamino-5-trifluoromethyl-pyrimidin-2-ylamino)-2,5-difluoro-phenyl]-morpholin-4-yl-methanone], 9.48 nM. Regarding `COc1cc(C(=O)N2CCOCC2)c(F)cc1Nc1ncc(C(F)(F)F)c(NC(C)C)n1` [Compound 32, [2-Fluoro-4-(4-isopropylamino-5-trifluoromethyl-pyrimidin-2-ylamino)-5-methoxy-phenyl]-morpholin-4-yl-methanone], the affinity, expressed as Ki, was 3.49 nM. Against the preceding molecule, the Ki is about 2.7-fold lower. For `CNc1nc(Nc2ccc(C(=O)N3CCOCC3)c(C)c2OC)ncc1C(F)(F)F` [Compound 33, [3-Methoxy-2-methyl-4-(4-methylamino-5-trifluoromethyl-pyrimidin-2-ylamino)-phenyl]-morpholin-4-yl-methanone] the value was 114 nM. In turn, `CCNc1nc(Nc2cc(F)c(C(=O)N3CC4(CCO4)C3)cc2OC)ncc1C(F)(F)F` [Compound 34, [4-(4-Ethylamino-5-trifluoromethyl-pyrimidin-2-ylamino)-2-fluoro-5-methoxy-phenyl]-(1-oxa-6-aza-spiro[3.3]hept-6-yl)-methanone] gave a Ki of 1.3 nM. For `CNc1nc(Nc2cc(F)c(C(=O)NCC(C)(C)O)cc2OC)ncc1C(F)(F)F` [Compound 35, 2-Fluoro-N-(2-hydroxy-2-methyl-propyl)-5-methoxy-4-(4-methylamino-5-trifluoromethyl-pyrimidin-2-ylamino)-benzamide] the value was 4.36 nM; for `CNc1nc(Nc2cc(F)c(C(=O)N3C[C@H](F)[C@@H](F)C3)cc2OC)ncc1C(F)(F)F` [Compound 36, ((3S,4S)-3,4-Difluoro-pyrrolidin-1-yl)-[2-fluoro-5-methoxy-4-(4-methylamino-5-trifluoromethyl-pyrimidin-2-ylamino)-phenyl]-methanone], 4.42 nM.

With `CCNc1nc(Nc2cc(F)c(C(=O)NC)cc2OC)ncc1C(F)(F)F` [Compound 37, 4-(4-Ethylamino-5-trifluoromethyl-pyrimidin-2-ylamino)-2-fluoro-5-methoxy-N-methyl-benzamide], the affinity, expressed as Ki, was 1.31 nM. For `CNc1nc(Nc2ccc(C(=O)NCC(C)(C)O)c(F)c2OC)ncc1C(F)(F)F` [Compound 38, 2-Fluoro-N-(2-hydroxy-2-methyl-propyl)-3-methoxy-4-(4-methylamino-5-trifluoromethyl-pyrimidin-2-ylamino)-benzamide] the value was 11.6 nM.

For `CNc1nc(Nc2cc(OC)c(C(=O)N3CCC(F)(F)C3)cc2OCCF)ncc1C(F)(F)F` [Compound 39, (3,3-Difluoro-pyrrolidin-1-yl)-[5-(2-fluoro-ethoxy)-2-methoxy-4-(4-methylamino-5-trifluoromethyl-pyrimidin-2-ylamino)-phenyl]-methanone], the affinity corresponds to a Ki of 1.46 nM. For `CNc1nc(Nc2cc(OC)c(C(=O)N3CC4(CCO4)C3)cc2Cl)ncc1C(F)(F)F` [Compound 40, [5-Chloro-2-methoxy-4-(4-methylamino-5-trifluoromethyl-pyrimidin-2-ylamino)-phenyl]-(1-oxa-6-aza-spiro[3.3]hept-6-yl)-methanone] the value was 2.76 nM; for `CCNc1nc(Nc2ccc(C(=O)N3CCOCC3)c(F)c2F)ncc1C(F)(F)F` [Compound 41, [4-(4-Ethylamino-5-trifluoromethyl-pyrimidin-2-ylamino)-2,3-difluoro-phenyl]-morpholin-4-yl-methanone], 2.99 nM; for `COc1cc(C(=O)N2CCOCC2)c(C)cc1Nc1ncc(C(F)(F)F)c(NC2CC2)n1` [Compound 42, [4-(4-Cyclopropylamino-5-trifluoromethyl-pyrimidin-2-ylamino)-5-methoxy-2-methyl-phenyl]-morpholin-4-yl-methanone], 0.31 nM. For `CCNc1nc(Nc2cc(OC)c(C(=O)N3CC4(COC4)C3)cc2Cl)ncc1C(F)(F)F` [Compound 43, [5-Chloro-4-(4-ethylamino-5-trifluoromethyl-pyrimidin-2-ylamino)-2-methoxy-phenyl]-(2-oxa-6-aza-spiro[3.3]hept-6-yl)-methanone] the value was 0.832 nM; for `CCNc1nc(Nc2cc(C)c(C(=O)N3CCOCC3)cc2OC)ncc1C(F)(F)F` [Compound 44, [4-(4-Ethylamino-5-trifluoromethyl-pyrimidin-2-ylamino)-5-methoxy-2-methyl-phenyl]-morpholin-4-yl-methanone], 0.31 nM. For `COc1cc(C(=O)NCC(C)(C)O)c(F)cc1Nc1ncc(C(F)(F)F)c(NC2CC2)n1` [Compound 45, 4-(4-Cyclopropylamino-5-trifluoromethyl-pyrimidin-2-ylamino)-2-fluoro-N-(2-hydroxy-2-methyl-propyl)-5-methoxy-benzamide] the value was 0.31 nM.
